Experimental data taken from US20080269298A1, “Benzimidazol-1-YL-thiophene compounds for the treatment of cancer” (priority 2002, published 2008).
Structures can show the parent of a compound that is named as a salt.

How the values were obtained:
[1] = tested on: prostate (PC3) tumor cell line; assay: Methylene Blue Growth Inhibition Assay, PC3; assay type: cell-based; conditions: Homo sapiens, 72 h; Cell Line PC3, 3 days; read-out: MeB IC50
How it was run: (§1)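 Growth inhibition is measured as methylene blue-stained biomass (OD 620 nm) after 3 days of compound treatment, relative to vehicle controls. Cells grow in high-glucose DMEM with 10% FBS and 0.3% final DMSO; IC50 comes from nonlinear regression.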

[2] = tested on: Normal Human foreskin fibroblasts (HFF); assay: Methylene Blue Growth Inhibition Assay, HFF; assay type: cell-based; conditions: 72 h, Cell Line HFF, 3 days, read-out: MeB IC50
How it was run: (§2)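 Methylene blue dye retained by cells after a 3-day, 37° C compound incubation in DMEM/10% FBS (0.3% DMSO) served as the biomass readout at 620 nm. IC50 values were interpolated by nonlinear regression against vehicle wells.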

PLK1 kinase domain = biological target: T1, PLK1 kinase domain (Homo sapiens, UniProt P53350); assay: Assay for Inhibition of PLK1 (SPA enzyme activity); assay type: biochemical; conditions: 2 μM ATP, read-out: Ave pIC50 PLK Enzyme Inhibition (converted)
T1 construct: made in house; host or cells: baculovirus-infected T. ni insect cells

[3] = tested on: lung (H460) tumor cell line; assay: Methylene Blue Growth Inhibition Assay, H460; assay type: cell-based; conditions: Homo sapiens, NCI-H460, 72 h; Cell Line H460, 3 days; read-out: MeB IC50
How it was run: as §2

[4] = tested on: colon (HCT116) tumor cell line; assay: Methylene Blue Growth Inhibition Assay, HCT116; assay type: cell-based; conditions: Homo sapiens, HCT-116, 72 h; Cell Line HCT116, 3 days; read-out: MeB IC50
How it was run: as §1

[5] = tested on: colon (RKO) tumor cell line; assay: Methylene Blue Growth Inhibition Assay, RKO; assay type: cell-based; conditions: Homo sapiens, 72 h, 3 days, read-out: MeB IC50
How it was run: as §2

[6] = tested on: breast tumor (MCF7) cell line; assay: Methylene Blue Growth Inhibition Assay, MCF7; assay type: cell-based; conditions: Homo sapiens, 72 h; Cell Line MCF7, 3 days; read-out: MeB IC50
How it was run: as §1

T1 sequence (P53350 21-346): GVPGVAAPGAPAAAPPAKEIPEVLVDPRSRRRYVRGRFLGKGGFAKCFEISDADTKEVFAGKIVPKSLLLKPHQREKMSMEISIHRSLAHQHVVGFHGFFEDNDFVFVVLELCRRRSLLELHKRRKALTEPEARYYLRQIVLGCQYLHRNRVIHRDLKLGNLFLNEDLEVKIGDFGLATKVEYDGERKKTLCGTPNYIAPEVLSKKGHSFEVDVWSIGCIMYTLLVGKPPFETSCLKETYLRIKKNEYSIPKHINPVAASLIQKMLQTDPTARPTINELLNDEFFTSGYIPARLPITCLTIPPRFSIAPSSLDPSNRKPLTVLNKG

SMILES	IC50 [1] [µM]	IC50 (PLK1 kinase domain) [nM]	IC50 [3] [µM]	IC50 [4] [µM]	IC50 [5] [µM]	IC50 [6] [µM]	IC50 [2] [µM]
CS(=O)(=O)N1CCC(COc2cc(-n3cnc4cc5c(cc43)OCCO5)sc2C(N)=O)CC1 [Example 124, 5-(6,7-Dihydro-1H-[1,4]dioxino[2,3-f]benzimidazol-1-yl)-3-{[1-(methylsulfonyl)-piperidin-4-yl]methoxy}thiophene-2-carboxamide]	> 10	100 to 10000	> 10	> 10	> 10	> 10	> 10
NC(=O)c1ccc2c(c1)ncn2-c1cc(OCc2ccccc2C(F)(F)F)c(C(N)=O)s1 [Example 125, 1-[5-(Aminocarbonyl)-4-({[2-(trifluoromethyl)phenyl]methyl}oxy)-2-thienyl]-1H-benzimidazole-5-carboxamide]	> 10	< 100	1 to 10	1 to 10	1 to 10	1 to 10	> 10
COc1ccc(COc2cc(-n3cnc4cc(OC)c(OC)cc43)sc2C(N)=O)cc1 [Example 128, 5-(5,6-Dimethoxy-1H-benzimidazol-1-yl)-3-[(4-methoxybenzyl)oxy]thiophene-2-carboxamide]	> 10	100 to 10000	1 to 10	> 10	1 to 10	1 to 10	> 10
NC(=O)c1sc(-n2cnc3ccccc32)cc1C#Cc1ccccc1 [Example 129, 5-(1H-Benzimidazol-1-yl)-3-(phenylethynyl)thiophene-2-carboxamide]	> 10	100 to 10000	> 10	> 10	> 10	> 10	> 10
NC(=O)c1sc(-n2cnc3ccccc32)cc1CCc1ccccc1 [Example 130, 5-(1H-Benzimidazol-1-yl)-3-(2-phenylethyl)thiophene-2-carboxamide]	> 10	100 to 10000	> 10	1 to 10	1 to 10	1 to 10	> 10
CN(c1ccccc1)c1cc(-n2cnc3ccccc32)sc1C(N)=O [Example 131, 5-(1H-Benzimidazol-1-yl)-3-[methyl(phenyl)amino]thiophene-2-carboxamide]	> 10	100 to 10000	1 to 10	1 to 10	1 to 10	1 to 10	> 10
NC(=O)c1sc(-n2cnc3ccccc32)cc1NS(=O)(=O)c1ccccc1 [Example 132, 5-(1H-Benzimidazol-1-yl)-3-[(phenylsulfonyl)amino]thiophene-2-carboxamide]	> 10	< 100	> 10	> 10	> 10	> 10	> 10
NC(=O)c1sc(-n2cnc3ccccc32)cc1NCc1ccccc1C(F)(F)F [Example 133, 5-(1H-Benzimidazol-1-yl)-3-{[2-(trifluoromethyl)benzyl]amino}-thiophene-2-carboxamide]	> 10	100 to 10000	> 10	1 to 10	1 to 10	> 10	> 10
COc1cc2ncn(-c3cc(OCc4ccccc4C(F)(F)F)c(C(N)=O)s3)c2cc1OCCCN(C)C [Example 135, 5-[6-{[3-(Dimethylamino)propyl]oxy}-5-(methyloxy)-1H-benzimidazol-1-yl]-3-({[2-(trifluoromethyl)phenyl]methyl}oxy)-2-thiophenecarboxamide]	1 to 10	< 100	< 1	< 1	< 1	< 1	1 to 10
COc1cc2ncn(-c3cc(OCc4ccccc4C(F)(F)F)c(C(N)=O)s3)c2cc1OCCN1CCN(C)CC1 [Example 136, 5-(5-(Methyloxy)-6-{[2-(4-methyl-1-piperazinyl)ethyl]oxy}-1H-benzimidazol-1-yl)-3-({[2-(trifluoromethyl)phenyl]methyl}oxy)-2-thiophenecarboxamide]	1 to 10	< 100	< 1	< 1	< 1	< 1	1 to 10
COc1cc2ncn(-c3cc(OCc4ccccc4C(F)(F)F)c(C(N)=O)s3)c2cc1OCCN1CCOCC1 [Example 137, 5-(5-(Methyloxy)-6-{[2-(4-morpholinyl)ethyl]oxy}-1H-benzimidazol-1-yl)-3-({[2-(trifluoromethyl)phenyl]methyl}oxy)-2-thiophenecarboxamide]	1 to 10	< 100	1 to 10	< 1	1 to 10	1 to 10	> 10
NC(=O)c1sc(-n2cnc3ccc(OCCN4CCOCC4)cc32)cc1OCc1ccccc1C(F)(F)F [Example 138, 5-[6-(2-Morpholin-4-ylethoxy)-1H-benzimidazol-1-yl]-3-{[2-(trifluoromethyl)benzyl]oxy}thiophene-2-carboxamide]	> 10	< 100	< 1	1 to 10	< 1	1 to 10	1 to 10
NC(=O)c1sc(-n2cnc3ccc(OCCN4CCCC4)cc32)cc1OCc1ccccc1C(F)(F)F [Example 139, 5-[6-(2-Pyrrolidin-1-ylethoxy)-1H-benzimidazol-1-yl]-3-{[2-(trifluoromethyl)benzyl]oxy}thiophene-2-carboxamide]	1 to 10	< 100	1 to 10	1 to 10	< 1	1 to 10	> 10

Second part, led by results:

IC50 [1] [µM]	IC50 (PLK1 kinase domain) [nM]	IC50 [3] [µM]	IC50 [4] [µM]	IC50 [5] [µM]	IC50 [6] [µM]	SMILES	IC50 [2] [µM]
1 to 10	< 100	1 to 10	1 to 10	< 1	1 to 10	NC(=O)c1sc(-n2cnc3cc(F)c(OCCN4CCOCC4)cc32)cc1OCc1ccccc1C(F)(F)F [Example 140, 5-[5-Fluoro-6-(2-morpholin-4-ylethoxy)-1H-benzimidazol-1-yl]-3-{[2-(trifluoromethyl)benzyl]oxy}thiophene-2-carboxamide]	> 10
> 10	< 100	> 10	> 10	> 10	> 10	COc1cc2ncn(-c3cc(OCc4ccccc4C(F)(F)F)c(C(N)=S)s3)c2cc1OC [Example 145]	> 10
> 10	100 to 10000	1 to 10	1 to 10	1 to 10	1 to 10	NC(=O)c1sc(-n2c(N)nc3ccccc32)cc1OCc1ccccc1C(F)(F)F [Example 148, 5-(2-Amino-1H-benzimidazol-1-yl)-3-{[2-(trifluoromethyl)benzyl]oxy}thiophene-2-carboxamide]	> 10
> 10	< 100	1 to 10	1 to 10	> 10	> 10	COC(=O)c1sc(-n2cnc3cc(OC)c(OC)cc32)cc1OS(=O)(=O)c1ccccc1[N+](=O)[O-] [Example 149]	> 10
> 10	100 to 10000	> 10	> 10	> 10	> 10	COC(=O)c1sc(-n2cnc3cc(OC)c(OC)cc32)cc1OS(=O)(=O)C(F)(F)F [Example 150, Methyl 5-(5,6-dimethoxy-1H-benzimidazol-1-yl)-3-{[(trifluoromethyl)sulfonyl]oxy}thiophene-2-carboxylate]	> 10
> 10	< 100	> 10	> 10	> 10	> 10	COc1cc2ncn(-c3cc(OS(=O)(=O)c4ccccc4C)c(C(=O)O)s3)c2cc1OC [Example 151, 5-(5,6-Dimethoxy-1H-benzimidazol-1-yl)-3-{[(2-methylphenyl)sulfonyl]oxy}thiophene-2-carboxylic acid]	> 10
> 10	100 to 10000	> 10	> 10	> 10	> 10	COc1cc2ncn(-c3cc(O)c(C(N)=O)s3)c2cc1OC [Example 152, 5-(5,6-Dimethoxy-1H-benzimidazol-1-yl)-3-hydroxythiophene-2-carboxamide trifluoroacetate]	> 10
> 10	< 100	> 10	> 10	> 10	> 10	COc1cc2ncn(-c3cc(OS(=O)(=O)c4ccccc4[N+](=O)[O-])c(C(N)=O)s3)c2cc1OC [Example 153, 2-(Aminocarbonyl)-5-(5,6-dimethoxy-1H-benzimidazol-1-yl)thien-3-yl 2-nitrobenzenesulfonate]	> 10
